How the values were obtained:
Type in all cases: functional, cell-based
[1] = Cytotoxicity against human KBV1 cells by MTT method; settings: KB-V1
[2] = Cytotoxicity against camptothecin-resistant human CPT-K5 cells by MTT method
[3] = tested on: P388; test: cells; settings: Mus musculus
[4] = Cytotoxicity against human KB3-1 cells by MTT method; settings: KB 3-1
[5] = Cytotoxicity against human RPMI8402 cells by MTT method; settings: RPMI 8402
[6] = tested on: P388; test: Cytotoxicity against mouse P388 cells by MTT method
[7] = Cytotoxicity against human KBH5.0 cells by MTT method; settings: KBH5.0 cell

Row | Structure (SMILES) | IC50 [3] | IC50 [1] | IC50 [2] | IC50 [4] | IC50 [5] | IC50 [6] | IC50 [7]
1 | COc1cc2cc(C(=O)N(C)C)c3c4cc5c(cc4ncc3c2cc1OC)OCO5 | > 10000 nM | 4000 nM | > 10000 nM | 1200 nM | 1600 nM | 980 nM | 3600 nM
2 | COc1cc2cc(CCCN(C)C)c3c4cc5c(cc4ncc3c2cc1OC)OCO5 | 200 nM | 400 nM | 290 nM | 35 nM | 60 nM | 40 nM | 130 nM
3 | COc1cc2cc(CO)c3c4cc5c(cc4ncc3c2cc1OC)OCO5 | > 10000 nM | 400 nM | > 10000 nM | 150 nM | 120 nM | 60 nM | 400 nM
4 | COc1cc2cc(CCN)c3c4cc5c(cc4ncc3c2cc1OC)OCO5 | 180 nM | 500 nM | 200 nM | 20 nM | 32 nM | 14 nM | 110 nM
5 | CNC(=O)c1cc2cc(OC)c(OC)cc2c2cnc3cc4c(cc3c12)OCO4 | > 10000 nM | 420 nM | > 10000 nM | 230 nM | 280 nM | – | 480 nM
6 | CCc1c2c(nc3ccc(OC(=O)N4CCC(N5CCCCC5)CC4)cc13)-c1cc3c(c(=O)n1C2)COC(=O)[C@]3(O)CC [IRINOTECAN] | – | 40000 nM | – | 680 nM | – | – | 7400 nM
7 | COc1cc2cc(/C=C/[N+](=O)[O-])c3c4cc5c(cc4ncc3c2cc1OC)OCO5 | 10000 nM | 450 nM | > 10000 nM | 180 nM | 550 nM | 180 nM | 420 nM
8 | CCOC(=O)c1cc2cc(OC)c(OC)cc2c2cnc3cc4c(cc3c12)OCO4 | > 10000 nM | > 10000 nM | > 10000 nM | > 10000 nM | 10000 nM | 4000 nM | > 10000 nM
9 | COc1cc2cc(C=O)c3c4cc5c(cc4ncc3c2cc1OC)OCO5 | 10000 nM | 300 nM | > 10000 nM | 130 nM | 100 nM | 120 nM | 290 nM
10 | COc1cc2cc(CC[N+](=O)[O-])c3c4cc5c(cc4ncc3c2cc1OC)OCO5 | > 10000 nM | 360 nM | > 10000 nM | 150 nM | 60 nM | 70 nM | 320 nM
11 | COc1cc2cc(C(N)=O)c3c4cc5c(cc4ncc3c2cc1OC)OCO5 | > 10000 nM | 400 nM | > 10000 nM | 55 nM | 140 nM | 35 nM | 2700 nM
12 | CC[C@@]1(O)C(=O)OCc2c1cc1n(c2=O)Cc2cc3ccccc3nc2-1 [CAMPTOTHECIN] | > 10000 nM | – | – | 15 nM | 4 nM | 4 nM | –
13 | COc1cc2cc(CN)c3c4cc5c(cc4ncc3c2cc1OC)OCO5 | 300 nM | 160 nM | 2100 nM | 30 nM | 120 nM | 26 nM | 210 nM

The next lines start with results.

Row | IC50 [3] | Structure (SMILES) | IC50 [1] | IC50 [2] | IC50 [4] | IC50 [5] | IC50 [6] | IC50 [7]
14 | 180 nM | COc1cc2cc(CCN(C)C)c3c4cc5c(cc4ncc3c2cc1OC)OCO5 | 60 nM | 330 nM | 21 nM | 20 nM | 15 nM | 40 nM
15 | 260 nM | COc1cc2cc(C(=O)NCCN(C)C)c3c4cc5c(cc4ncc3c2cc1OC)OCO5 | 1400 nM | 630 nM | 27 nM | 35 nM | 15 nM | 200 nM
16 | 230 nM | COc1cc2c(=O)n(CCN(C)C)c3c4cc5c(cc4ncc3c2cc1OC)OCO5 | 5 nM | – | 5 nM | – | – | –
17 | 350 nM | COc1cc2cc(/C=C/CN(C)C)c3c4cc5c(cc4ncc3c2cc1OC)OCO5 | 330 nM | 350 nM | 30 nM | 35 nM | 40 nM | 70 nM
18 | > 10000 nM | CC[C@@]1(O)C(=O)OCc2c1cc1n(c2=O)Cc2cc3c(CN(C)C)c(O)ccc3nc2-1 [TOPOTECAN] | 440 nM | – | 40 nM | 210 nM | – | –
19 | 2000 nM | COc1cc2cc(CN(C)C)c3c4cc5c(cc4ncc3c2cc1OC)OCO5 | 250 nM | 2700 nM | 60 nM | 100 nM | 100 nM | 290 nM
